Patent US20190247376A1, “NICOTINIC ACETYLCHOLINE RECEPTOR AGONIST ATTENUATES ILC2-DEPENDENT AIRWAY HYPERREACTIVITY” (University of Southern California, priority 2016, published 2019)

System: Rag2−/− mice
Assay: Alternaria alternata-induced AHR in Rag2-deficient mice
Type: in vivo, mouse
Conditions: four consecutive days
Description: FIGS. 6A-6C: α7nAChR agonist inhibits Alternaria-induced AHR. (FIG. 6A) Rag2-deficient mice intranasally received an extract of Alternaria alternata with or without α7nAChR agonist on days 1-4 according to scheme FIG. 6A. Measurement of lung function and BALF analysis followed on day 5. (FIG. 6B) Lung resistance. (FIG. 6C) Total number of eosinophils in BALF. Total number of lung ILC2s. Data are representative of at least four independent experiments and are presented as means±SEM (n=4; Student's t test *, p<0.05; ***, p<0.001).
It has been previously reported that Alternaria alternata can induce AHR^40. Applicants further explored the anti-inflammatory effects of α7nAChR agonist in ILC2-mediated AHR with this clinically relevant allergen. Rag2^−/− mice were i.n. administered Alternaria alternata extract with or without α7nAChR agonist for four consecutive days (FIG. 6A). […] Accordingly, the number of eosinophils in BALF and lung ILC2s were increased in Alternaria-treated mice. Meanwhile, α7nAChR agonist treatment abolished eosinophils and ILC2s in the lung (FIG. 6C).
Mice were intranasally (i.n.) administered carrier-free recombinant mouse IL-33 (BioLegend, San Diego Calif., 0.5 µg per mouse in 50 µL) with or without […] of α7nAChR agonist (kindly provided by Lin Chen) on three consecutive days. Mice were intranasally (i.n.) administered carrier-free recombinant mouse IL-25 (BioLegend, San Diego Calif., 5 µg per mouse in 50 µL) with or without […] of α7nAChR agonist on three consecutive days. For Alternaria alternata experiments, mice were i.n. administered Alternaria alternata (Greer Labs, Lenoir, N.C., 100 μg per mouse in 50 μL) with or without 125 µg α7nAChR agonist for four consecutive days. One day after the last challenge, mice were anesthetized using i.p. injection of ketamine (10 mg mL^−1) and xylazine (1 mg mL^−1). […] Maximum lung resistance (RL) and minimum compliance (Cdyn) values were recorded during a three-minute period after each methacholine challenge.

[1] = i.n. Alternaria alternata extract, agonist

## COc1ccc(/C=C2\CCCN=C2c2cccnc2)c(OC)c1 [GTS-21, 3-[(3E)-3-[(2,4-dimethoxyphenyl)methylidene]-5,6-dihydro-4H-pyridin-2-yl]pyridine]
i.n. Alternaria alternata extract 100 μg, agonist 125 μg
  AHR (lung resistance): did not develop AHR
[1]
  eosinophils in BALF: abolished
  lung ILC2s: abolished
